Results reported in patent US20180179198A1, “TRICYCLIC MODULATORS OF TNF SIGNALING” (AbbVie Inc., priority 2015, published 2018).

These compounds were tested against TNFα trimer (Homo sapiens, UniProt P01375) (assay: TNFα FP Competitive Binding Assay). Settings: TNFα FP competitive binding assay; class symbols A/B/C; read-out: TNF IC50.
Experimental: TNFα FP Competitive Binding Assay
• 1. Assay Buffer: Prepare 1× Assay Buffer (Water with 47 mM HEPES, 47 mM NaCl, 0.9 mM EDTA, 0.0071% Triton X-100) by adding 25 mL of 1 M HEPES, 5 mL of 5 M NaCl, 1 mL of 0.5 M EDTA, and 375 μL of a 10% Triton X-100 stock to a fresh 500 mL bottle of water. • 2. Assay Mixture: Prepare fresh Assay Mixture containing 20 nM TNFα trimer (60 nM protein) and 1 nM 2′,7′-difluoro-3′,6′-dihydroxy-N-(2-(2-(2-((4-(isoquinolin-8-yl)-3-(4-(isoquinolin-8-yl)phenethoxy)benzyl)oxy)ethoxy)ethoxy)ethyl)-3-oxo-3H-spiro[isobenzofuran-1,9′-xanthene]-5-carboxamide probe in 1× Assay Buffer.
Compound Plate Preparation
Manual 12-point 1:3 Dilution Plates: (384 well polypropylene plates)
Top concentration of compounds, 10 mM in DMSO, dispensed in rows A-O in columns 1 and 13. Compounds are serially diluted 1:3 with DMSO in columns 2-12 or 14-24 using a 16-channel Matrix pipettor. Plates stored at −20° C.
Discovery Preps 12-point 1:3 Dilution Plates: (384 well assay plates)
Top concentration, 5 mM in DMSO, of compounds placed in rows A-O in columns 1 and 13. Compounds are serially diluted 1:3 with DMSO in columns 2-12 or 14-24. Compound solutions are dispensed into replicate assay plates at 410 nL per well. Plates stored at 4° C.
TNFα FP Competitive Binding Assay Protocol
• 1. Compound plates are warmed to rt. • 2. Fresh Assay Mixture is prepared. • 3. Assay Mixture (20 μL) is dispensed each well of 384 assay plates using a Thermo Multidrop Combi or 16-channel Matrix pipettor. If Manual 12-point 1:3 Dilution Plates are to be tested, Assay Mix is dispensed into empty plates. Discovery Preps 12-point 1:3 Dilution Plates already contain 410 nL compound solution in DMSO. • 4. For Manual 12-point 1:3 Dilution Plates, 0.7 μL is manually transferred using a 16-channel Matrix pipettor to replicate assay plates containing 20 μL Assay Mixture for a final top compound concentration of 338 μM (3.4% DMSO). • 5. For Discovery Preps 12-point 1:3 Dilution Plates, 20 μL Assay Mixture added the 410 nL compound solution already in the plates yields a final top compound concentration of 100 μM (2.0% DMSO). • 6. Background subtraction controls are wells P1-P8 containing only Assay Buffer. The low % inhibition controls are wells P9-P16 containing only Assay Mix. The high % inhibition are wells P17-P24 containing only 1 nM 2′,7′-difluoro-3′,6′-dihydroxy-N-(2-(2-(2-((4-(isoquinolin-8-yl)-3-(4-(isoquinolin-8-yl)phenethoxy)benzyl)oxy)ethoxy)ethoxy)ethyl)-3-oxo-3H-spiro[isobenzofuran-1,9′-xanthene]-5-carboxamide probe in 1× Assay Buffer. • 7. Plates are incubated at […] for 18-24 h in 37° C. incubator (CO2 is off). • 8. Prior to reading the assay, the plates are placed in a dark cabinet to equilibrate at rt for one hour. • 9. Background-subtracted fluorescence polarization (mP) is measured using a PerkinElmer Envision plate reader. • 10. Raw data is entered into Assay Explorer and dose-response curves are generated using a variable slope curve.

TNFα trimer, sequence (P01375 77-233 limits assumed): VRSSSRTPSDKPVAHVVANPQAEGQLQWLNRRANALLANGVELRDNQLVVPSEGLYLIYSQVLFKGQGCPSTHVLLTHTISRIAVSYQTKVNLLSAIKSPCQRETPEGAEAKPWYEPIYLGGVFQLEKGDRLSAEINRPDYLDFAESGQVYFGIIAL

| Compound | IC50 [nM] |
| --- | --- |
| OC1(c2ncc(-c3ccc4nc5n(c4c3)[C@@H](c3ccccc3)CC5)cn2)COC1 [AA.3] | < 1000 |
| c1ccc([C@H]2CCc3nc4ccc(-c5ccnc(OC6CCOCC6)c5)cc4n32)cc1 [AA.4] | < 1000 |
| c1ccc([C@H]2COCc3nc4ccc(-c5cnc(N6CCOCC6)nc5)nc4n32)cc1 [AB.1] | < 1000 |
| CC(C)(O)c1ncc(-c2ccc3nc4n(c3n2)[C@@H](c2ccccc2)COC4)cn1 [AB.2] | < 1000 |
| O=C1CN(c2ncc(-c3ccc4nc5n(c4n3)[C@@H](c3ccccc3)COC5)cn2)CCN1 [AB.3] | < 1000 |
| OC1CCN(c2ncc(-c3ccc4nc5n(c4n3)[C@@H](c3ccccc3)COC5)cn2)CC1 [AB.4] | < 1000 |
| O=C1NCN2CCN(c3ncc(-c4ccc5nc6n(c5n4)[C@@H](c4ccccc4)COC6)cn3)CC12 (some centres unmarked) [AB.5] | < 1000 |
| COc1ccccc1[C@H]1COCc2nc3ccc(-c4cnc(N5CCC(O)CC5)nc4)nc3n21 [AC.1] | < 1000 |
| COc1ccccc1C1CCc2nc3ccc(-c4cnc(N5CCC(O)CC5)nc4)nc3n21 (centres unmarked) [AD.1] | < 1000 |
| COc1ccccc1C1CCc2nc3ccc(-c4cnc(N5CCN6C(=O)NCC6C5)nc4)nc3n21 (centres unmarked) [AD.2] | < 1000 |
| COc1ccccc1C1CCCc2nc3ccc(-c4cnc(N5CCC(O)CC5)nc4)nc3n21 (centres unmarked) [AE.1] | < 1000 |
| O=C1NC[C@@H]2CN(c3ncc(-c4ccc5nc6c(n5c4)[C@@H](c4ccccc4)COC6)cn3)CCN12 [AF.1] | < 1000 |
| O=C1NC[C@@H]2CN(c3ncc(-c4ccc5nc6c(n5n4)[C@@H](c4ccccc4)COC6)cn3)CCN12 [AF.2] | < 1000 |
| COc1ccccc1C1CCc2nc3ccc(-c4cnc(N5CCOCC5)nc4)cn3c21 (centres unmarked) [AG.1] | < 1000 |
| O=C1NCC2CN(c3ncc(-c4ccc5nc6n(c5c4)C(c4ccccc4F)COC6)cn3)CCN12 (centres unmarked) [AH.1] | < 1000 |
| O=C1NCC2CN(c3ncc(-c4ccc5nc6n(c5c4)C(c4cccc(Cl)c4)COC6)cn3)CCN12 (centres unmarked) [AH.2] | < 1000 |
| O=C1NCC2CN(c3ncc(-c4ccc5nc6n(c5c4)[C@@H](c4ccccc4Cl)COC6)cn3)CCN12 (some centres unmarked) [AH.3] | < 1000 |
| O=C1NCC2CN(c3ncc(-c4ccc5nc6n(c5c4)C(c4cccc(C(F)(F)F)c4)COC6)cn3)CCN12 (centres unmarked) [AH.4] | < 1000 |
| O=C1NCC2CN(c3ncc(-c4ccc5nc6n(c5n4)[C@@H](C4CCCCC4)CC6)cn3)CCN12 (some centres unmarked) [AH.5] | < 1000 |
| O=C1NCC2CN(c3ncc(-c4ccc5nc6n(c5n4)C(C4CCCCC4)CC6)cn3)CCN12 (centres unmarked) [AH.6] | < 1000 |
| O=C1NCC2CN(c3ncc(-c4ccc5nc6n(c5n4)C(c4ccccc4F)COC6)cn3)CCN12 (centres unmarked) [AH.7] | < 1000 |

| Compound | IC50 [nM] |
| --- | --- |
| O=C1NCC2CN(c3ncc(-c4ccc5nc6n(c5n4)C(c4cccc(F)c4)COC6)cn3)CCN12 (centres unmarked) [AH.8] | < 1000 |
| CC1(c2ccccc2)CCc2nc3ccc(-c4cnc(N5CCN6C(=O)NCC6C5)nc4)nc3n21 (centres unmarked) [AH.9] | < 1000 |
| OC1CCN(c2ncc(-c3ccc4nc5n(c4n3)C(c3cccc(F)c3)COC5)cn2)CC1 (centres unmarked) [AI.1] | < 1000 |
| COc1ccccc1C1CCCc2nc3ccc(-c4cnc(N5CCC(O)CC5)nc4)cn3c21 (centres unmarked) [AJ.1] | < 1000 |
| COc1ccccc1C1CCCc2nc3ccc(-c4cnc(N5CCCC(O)CC5)nc4)cn3c21 (centres unmarked) [AJ.2] | < 1000 |
| COc1ccccc1C1CCCc2nc3ccc(-c4cnc(N5CCC(F)(CO)CC5)nc4)cn3c21 (centres unmarked) [AJ.3] | < 1000 |
| COc1ccccc1C1CCCc2nc3ccc(-c4cnc(N5CCC(O)C(F)(F)C5)nc4)cn3c21 (centres unmarked) [AJ.4] | < 1000 |
| COc1ccccc1C1CCCc2nc3ccc(-c4cnc(N5CCC(C)(O)CC5)nc4)cn3c21 (centres unmarked) [AJ.5] | < 1000 |
| COc1ccccc1C1CCCc2nc3ccc(-c4cnc(N5CCN6C(=O)NCC6C5)nc4)cn3c21 (centres unmarked) [AJ.6] | < 1000 |
| COc1ccccc1C1CCCc2nc3ccc(-c4cnc(N5CCCOCC5)nc4)cn3c21 (centres unmarked) [AJ.7] | < 1000 |
| COc1ccccc1C1CCCc2nc3ccc(-c4cnc(N5CCC6(CC5)CC(O)C6)nc4)cn3c21 (centres unmarked) [AJ.8] | < 1000 |
| OC[C@@H]1CCCN1c1ncc(-c2ccc3nc4n(c3n2)[C@@H](c2ccccc2)CC4)cn1 [AK.1] | 1000 to 10000 |
| CS(=O)(=O)CCn1ccc(-c2ccc3nc4n(c3n2)[C@@H](c2ccccc2)CC4)cc1=O [AK.2] | 10000 to 100000 |
| CC(C)(O)Cn1ccc(-c2ccc3nc4n(c3n2)[C@@H](c2ccccc2)CC4)cc1=O [AK.3] | 10000 to 100000 |
| CC(O)c1ncc(-c2ccc3nc4n(c3n2)[C@@H](c2ccccc2)CC4)cn1 (some centres unmarked) [AL.1] | 1000 to 10000 |
| OC(CC1CC1)c1ncc(-c2ccc3nc4n(c3n2)[C@@H](c2ccccc2)CC4)cn1 (some centres unmarked) [AL.2] | 1000 to 10000 |
| OC(c1ncc(-c2ccc3nc4n(c3n2)[C@@H](c2ccccc2)CC4)cn1)C1CCOCC1 (some centres unmarked) [AL.3] | 1000 to 10000 |
| CC(O)(c1ncc(-c2ccc3nc4n(c3n2)[C@@H](c2ccccc2)CC4)cn1)C1CCOCC1 (some centres unmarked) [AL.4] | 1000 to 10000 |
| CC(O)(CC1CC1)c1ncc(-c2ccc3nc4n(c3n2)[C@@H](c2ccccc2)CC4)cn1 (some centres unmarked) [AL.5] | 1000 to 10000 |
| COc1cccc([C@H]2CCc3nc4ccc(-c5cnc(N6CCN7C(=O)NC[C@@H]7C6)nc5)nc4n32)c1 [AM.1] | < 1000 |
| COc1cccc([C@H]2CCc3nc4ccc(-c5cnc(N6CCN(C(C)=O)[C@H](C)C6)nc5)nc4n32)c1 [AM.2, 1-((R)-4-(5-((R)-8-(3-methoxyphenyl)-7,8-dihydro-6H-pyrrolo[2′,1′:2,3]imidazo[4,5-b]pyridin-2-yl)pyrimidin-2-yl)-2-methylpiperazin-1-yl)ethanone] | < 1000 |

| Compound | IC50 [nM] |
| --- | --- |
| COc1cccc([C@@H]2CCc3nc4ccc(-c5cnc(N6CCN7C(=O)NC[C@@H]7C6)nc5)nc4n32)c1 [AN.1] | 10000 to 100000 |
| COc1ccccc1[C@H]1CCc2nc3ccc(-c4cnc(N5CCN6C(=O)NC[C@@H]6C5)nc4)nc3n21 [AO.1] | < 1000 |
| COc1ccccc1[C@H]1CCc2nc3ccc(-c4cnc(N5CCN6C(=O)NC[C@H]6C5)nc4)nc3n21 [AO.2] | < 1000 |
| COc1ccccc1[C@H]1CCc2nc3ccc(-c4cnc(N5CCC(O)CC5)nc4)nc3n21 [AO.3] | < 1000 |
| COc1ccccc1[C@H]1CCc2nc3ccc(-c4cnc(N5CCN(C(=O)CO)[C@H](C)C5)nc4)nc3n21 [AO.4] | < 1000 |
| COc1ccccc1[C@@H]1CCc2nc3ccc(-c4cnc(N5CCN6C(=O)NC[C@@H]6C5)nc4)nc3n21 [AP.1] | 1000 to 10000 |
| OC1CCC(Oc2cc(-c3ccc4nc5n(c4n3)[C@@H](c3ccccc3)CC5)ccn2)C1 (some centres unmarked) [AQ.1] | < 1000 |
| OC1CCC(Oc2cc(-c3ccc4nc5n(c4n3)[C@@H](c3ccccc3)CC5)ccn2)CC1 (some centres unmarked) [AQ.2] | < 1000 |
| c1ccc([C@H]2CCc3nc4ccc(-c5ccnc(OC6COC6)c5)nc4n32)cc1 [AQ.3] | 1000 to 10000 |
| OC1CCCC(Oc2cc(-c3ccc4nc5n(c4n3)[C@@H](c3ccccc3)CC5)ccn2)C1 (some centres unmarked) [AQ.4] | 1000 to 10000 |
| c1ccc([C@H]2CCc3nc4ccc(-c5ccnc(OCC6COC6)c5)nc4n32)cc1 [AQ.5] | 1000 to 10000 |
| CN1CC[C@@H](Oc2cc(-c3ccc4nc5n(c4n3)[C@@H](c3ccccc3)CC5)ccn2)C1 [AQ.6] | 1000 to 10000 |
| OCCOc1cc(-c2ccc3nc4n(c3n2)[C@@H](c2ccccc2)CC4)ccn1 [AQ.7] | 1000 to 10000 |
| CN1CC[C@H](Oc2cc(-c3ccc4nc5n(c4n3)[C@@H](c3ccccc3)CC5)ccn2)C1 [AQ.8] | 1000 to 10000 |
| O[C@H]1CC[C@@H](Oc2cc(-c3ccc4nc5n(c4n3)[C@@H](c3ccccc3)CC5)ccn2)CC1 [AR.1] | 1000 to 10000 |
| c1ccc([C@H]2CCc3nc4ccc(-c5ccnc(OC6CCOC6)c5)nc4n32)cc1 (some centres unmarked) [AS.1] | 1000 to 10000 |
| c1ccc([C@H]2CCc3nc4ccc(-c5ccnc(OC6CCCC6)c5)nc4n32)cc1 [AS.2] | 1000 to 10000 |
| c1ccc([C@H]2CCc3nc4ccc(-c5ccnc(OC6CCCCC6)c5)nc4n32)cc1 [AS.3] | 1000 to 10000 |
| COC(=O)C1CCC(Oc2cc(-c3ccc4nc5n(c4n3)[C@@H](c3ccccc3)CC5)ccn2)CC1 (some centres unmarked) [AS.4] | 1000 to 10000 |
| COC(=O)C1CCC(Oc2cc(-c3ccc4nc5n(c4n3)[C@@H](c3ccccc3)CC5)ccn2)C1 (some centres unmarked) [AS.5] | 1000 to 10000 |
